Laboratory results published in article PMC7582476, “Discovery of Novel Indoleamine 2,3-Dioxygenase 1 (IDO1) and Histone Deacetylase 1 (HDAC1) Dual Inhibitors Derived from the Natural Product Saprorthoquinone” (Molecules, 2020).
Like-named read-outs stand apart in the source and are kept apart here.

Assays:
[1] = molecular target: T1, IDO1 (Homo sapiens, UniProt P14902); test: IDO1 enzymatic assay; assay type: biochemical; details: for IC50: mean ± SD of at least two independent assays
T1 construct: No. 20160706
T1 sequence (P14902 whole entry): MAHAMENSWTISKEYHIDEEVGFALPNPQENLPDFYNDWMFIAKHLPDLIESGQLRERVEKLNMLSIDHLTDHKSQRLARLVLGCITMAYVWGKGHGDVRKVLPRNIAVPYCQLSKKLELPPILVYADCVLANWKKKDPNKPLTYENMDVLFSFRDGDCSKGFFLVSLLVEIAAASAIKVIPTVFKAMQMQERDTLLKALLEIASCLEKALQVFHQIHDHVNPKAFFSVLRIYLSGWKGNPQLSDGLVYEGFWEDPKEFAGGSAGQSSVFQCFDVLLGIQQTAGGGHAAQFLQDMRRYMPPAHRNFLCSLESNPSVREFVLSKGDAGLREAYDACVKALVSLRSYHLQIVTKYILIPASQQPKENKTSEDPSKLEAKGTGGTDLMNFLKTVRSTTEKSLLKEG
Procedure: (1) Prepare 100× compound of the final desired highest inhibitor concentration in reaction by 100% DMSO. For example, if compounds test at 10 μM, then prepare 1 mM of compound solution in this step. Then dilute compound with DMSO in 3-fold mode to obtain different concentrations. Mark as source plate. (2) Add 100 μL of 100% DMSO to column 1 and column 12 for background control and no compound high control respectively.
Transfer 2 μL of each well from the 96-well source plate to a 96-well assay plate.
• (3) Enzyme Reaction • Prepare 2× enzyme solution. Add IDO-1 in assay buffer. • Prepare 2× substrate solution. Add L-tryptophan, ascorbate, methylene blue, catalase in the assay buffer. • Assay plate already contains 2 μL of compound in 100% DMSO. • Transfer 2× enzyme solution to the assay plate. Add 100 μL of 2× enzyme solution to each well of the 96-well assay plate. • Incubate at room temperature for 10 min. • Transfer […] to each well of the 96-well assay plate. • Read OD321 kinetically by Spectramax (Molecular Devices, LLC, San Jose, CA, USA). • (4) Curve Fitting • Copy data from Spectramax program. Percent inhibition = (max-conversion)/(max − min) × 100. “max” stands for high control; “min” stands for low control. • Fit the data in XL-Fit to obtain IC50 values. Equation used is: Y = Bottom + (Top − Bottom)/(1 + 10^((LogIC50 − X) × Hill Slope)

[2] = system: A549 cell line; test: Anti-proliferation assay in A549 cell line (CellTiter-Glo); assay type: cell-based; details: Homo sapiens; A549 cells, 48 h, CTG assay
Procedure: Cell viability was measured by the CellTiter-Glo Luminescent (CTG) assay. A549 cells (ATCC, Cat. No.CCL-185) were seeded (2000 cells/well) in 96-well plates and cells were left to incubate at 37 °C for 24 h. After 24 h, prepare compounds with 5-fold dilution in DMSO to the compound plate (200-fold of the final concentration) and transfer 5 μL from the compound plate to 95 μL intermediate medium in the intermediate plate (10-fold of the final concentration). Then transfer 10 μL from the intermediate plate to the cell plates. The final DMSO is 0.5%. After continuing to incubate for 48 h, add 50 μL CTG reagent to each well and read luminescence according to CTG product manual.

[3] = molecular target: T2, HDAC1 (Homo sapiens, UniProt Q13547); test: HDAC enzymatic assay; assay type: biochemical; details: mean ± SD of at least two independent assays
T2 construct: purchased BPS Bioscience Inc. 50051
T2 sequence (Q13547 whole entry): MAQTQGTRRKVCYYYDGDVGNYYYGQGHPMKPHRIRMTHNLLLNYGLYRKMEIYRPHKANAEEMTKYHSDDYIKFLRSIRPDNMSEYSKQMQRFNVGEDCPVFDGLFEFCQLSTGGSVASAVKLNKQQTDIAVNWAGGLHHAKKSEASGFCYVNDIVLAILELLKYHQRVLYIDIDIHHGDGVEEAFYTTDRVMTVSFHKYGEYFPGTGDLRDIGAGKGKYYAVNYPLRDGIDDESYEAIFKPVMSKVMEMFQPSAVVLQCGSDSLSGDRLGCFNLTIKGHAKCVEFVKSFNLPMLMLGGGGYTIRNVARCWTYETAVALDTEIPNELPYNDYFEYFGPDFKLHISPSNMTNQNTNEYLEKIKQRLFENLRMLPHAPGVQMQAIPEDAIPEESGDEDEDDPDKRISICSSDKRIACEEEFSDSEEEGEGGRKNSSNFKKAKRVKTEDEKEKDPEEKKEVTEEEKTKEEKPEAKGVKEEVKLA
Procedure: • (1) Prepare 1× assay buffer (modified Tris Buffer). • (2) Compound serial dilution: Transfer compounds to assay plate by Echo in 100% DMSO. The final fraction of DMSO is 1%. • (3) Prepare enzyme solution in 1× assay buffer. • (4) Add trypsin and Ac-peptide substrate in 1× assay buffer to make the substrate solution. • (5) Transfer 15 μL of enzyme solution to assay plate or for low control transfer 15 μL of 1× assay buffer. • (6) Incubate at room temperature for 15 min. • (7) Add 10 μL of substrate solution to each well to start reaction. • (8) Incubate at room temperature for 60 min. • (9) Read the plate on Synergy MX with excitation at 355 nm and emission at 460 nm. • (10) Curve fitting: Fit the data in Excel to obtain inhibition values using Equation (1).
Inh% = (Max − Signal)/(Max − Min) × 100(1)
Fit the data in XL-Fit to obtain IC50 values using Equation (2); Y = Bottom + (Top − Bottom)/(1 + 10^((LogIC50 − X) × Hill Slope))(2)
Y is %inhibition and X is compound concentration.

[4] = 10 μM, Table 1 natural products, read-out: IDO1 Inhibition @ 10 μM (%)
[5] = 10 μM, Tables 2 and 3, read-out: IDO1 % Inhibition at 10 μM (converted)
[6] = 10 μM, Table 1 natural products

Compound: Cc1coc2c1C(=O)C(=O)c1c-2ccc2c(C)cccc12 [Compound 4]
- inhibition at 10 µM [1, 4]: 65%

Compound: Cc1ccc2c(c1CCC(=O)Nc1ccc(C(F)(F)F)cc1)C(=O)C(=O)C(C(C)C)=C2 [Compound 21c, 3-(6-Isopropyl-2-methyl-7,8-dioxo-7,8-dihydronaphthalen-1-yl)-N-(4-(trifluoromethyl)phenyl)propanamide]
- IC50 [2]: 7.49 µM
- inhibition at 10 µM [1, 5]: 64%

Compound: Cc1ccc2c(c1C(=O)CCC(C)(C)O)C(=O)C(=O)C(C(C)C)=C2 [Compound 8]
- inhibition at 10 µM [1, 4]: 73%

Compound: Cc1ccc2c(c1CCC(=O)NCCCCC(=O)Nc1ccccc1N)C(=O)C(=O)C(C(C)C)=C2 [Compound 33c, N-(2-Aminophenyl)-5-(3-(6-isopropyl-2-methyl-7,8-dioxo-7,8-dihydronaphthalen-1-yl)propanamido)-pentanamide]
- IC50 [2]: > 20 µM
- IC50 [3]: 39.5 ± 0.74 µM
- inhibition at 10 µM [1, 5]: 90%
- IC50 [1]: 0.55 ± 0.02 µM

Compound: Cc1ccc2c(c1CCCOS(N)(=O)=O)C(=O)C(=O)C(C(C)C)=C2 [Compound 24c, 3-(6-Isopropyl-2-methyl-7,8-dioxo-7,8-dihydronaphthalen-1-yl)propyl sulfamate]
- IC50 [2]: 11.1 µM
- inhibition at 10 µM [1, 5]: 86%

Compound: Cc1ccc2c(c1CCC(=O)Nc1ccc(F)cc1N)C(=O)C(=O)C(C(C)C)=C2 [Compound 27c, N-(2-amino-4-fluorophenyl)-3-(6-isopropyl-2-methyl-7,8-dioxo-7,8-dihydronaphthalen-1-yl)propanamide]
- IC50 [2]: > 20 µM
- IC50 [3]: > 100 µM
- inhibition at 10 µM [1, 5]: 56%

Compound: Cc1ccc2c(c1CCC(=O)NCCCC(=O)Nc1ccccc1N)C(=O)C(=O)C(C(C)C)=C2 [Compound 33b, N-(2-Aminophenyl)-4-(3-(6-isopropyl-2-methyl-7,8-dioxo-7,8-dihydronaphthalen-1-yl)propanamido)-butanamide]
- IC50 [2]: 19.1 µM
- IC50 [3]: 34.9 ± 0.75 µM
- inhibition at 10 µM [1, 5]: 80%
- IC50 [1]: 0.58 ± 0.11 µM

Compound: CC1COC2=C1C(=O)C(=O)c1c2ccc2c1CCCC2(C)C (stereo not shown) [Compound 6]
- inhibition at 10 µM [1, 4]: 66%

Compound: Cc1ccc2c(c1CCC(N)=O)C(=O)C(=O)C(C(C)C)=C2 [Compound 19, 3-(6-Isopropyl-2-methyl-7,8-dioxo-7,8-dihydro-naphthalen-1-yl)propanamide]
- IC50 [2]: 14.5 µM
- inhibition at 10 µM [1, 5]: 78%
- IC50 [1]: 0.51 ± 0.04 µM

Compound: CC(C)=CCCc1c(C)ccc2c1C(=O)C(=O)C(C(C)C)=C2 [Compound 1, saprorthoquinone]
- IC50 [2]: 9.97 µM
- inhibition at 10 µM [1, 4]: 85%
- inhibition at 10 µM [1, 5]: 85%
- IC50 [1]: 1.76 ± 0.27 µM

Compound: Cc1ccc2c(c1CCC(=O)Nc1ccccc1N)C(=O)C(=O)C(C(C)C)=C2 [Compound 27a, N-(2-Aminophenyl)-3-(6-isopropyl-2-methyl-7,8-dioxo-7,8-dihydronaphthalen-1-yl)propanamide]
- IC50 [2]: 17.8 µM
- IC50 [3]: > 100 µM
- inhibition at 10 µM [1, 5]: 88%
- IC50 [1]: 0.72 ± 0.1 µM

Compound: Cc1ccc2c(c1CCC(O)C(C)(C)O)C(=O)C(=O)C(C(C)C)=C2 (stereo not shown) [Compound 17, 8-(3,4-Dihydroxy-4-methylpentyl)-3-isopropyl-7-methylnaphthalene-1,2-dione]
- IC50 [2]: 12.8 µM
- inhibition at 10 µM [1, 5]: 90%
- IC50 [1]: 0.74 ± 0.15 µM

Compound: CC(C)C1=CC(=O)C([C@@]2(C)CCCC(C)(C)[C@@H]2CC=O)=CC1=O [Compound 13]
- inhibition at 10 µM [1, 4]: 6%

Compound: COC(=O)[C@@]1(C)CCCc2c1ccc1c2C(=O)C(=O)C2=C1OCC2C (stereo partly shown) [Compound 9]
- inhibition at 10 µM [1, 4]: 61%

Compound: CC(C)C1=C(O)C(=O)C23OC2(C(=O)CC2C(C)(C)CCCC23C)C1=O (stereo not shown) [Compound 15]
- IDO1 Inhibition @ 10 μM (%) [1, 6]: almost lost their activity
- inhibition at 10 µM [1, 4]: 3%

Compound: Cc1ccc2c(c1CCC(=O)O)C(=O)C(=O)C(C(C)C)=C2 [Compound 18, 3-(6-Isopropyl-2-methyl-7,8-dioxo-7,8-dihydronaphthalen-1-yl)propanoic acid]
- IC50 [2]: > 20 µM
- inhibition at 10 µM [1, 5]: 86%
- IC50 [1]: 0.99 ± 0.24 µM

Compound: COc1ccc(NC(=O)CCc2c(C)ccc3c2C(=O)C(=O)C(C(C)C)=C3)cc1 [Compound 21e, 3-(6-Isopropyl-2-methyl-7,8-dioxo-7,8-dihydronaphthalen-1-yl)-N-(4-methoxyphenyl)propanamide]
- IC50 [2]: > 20 µM
- inhibition at 10 µM [1, 5]: 66%

Compound: Cc1cccc2c3c(ccc12)C(=O)C(C(C)C)=C(O)C3=O [Compound 12]
- inhibition at 10 µM [1, 4]: 13%

Compound: Cc1ccc2c(c1/C=C\C(=O)C(C)(C)O)C(=O)C(O)=C(C(C)C)C2=O [Compound 16]
- IDO1 Inhibition @ 10 μM (%) [1, 6]: almost lost their activity
- inhibition at 10 µM [1, 4]: 3%

Compound: Cc1ccc2c(c1CCC(=O)Nc1cccc(F)c1)C(=O)C(=O)C(C(C)C)=C2 [Compound 21a, N-(3-Fluorophenyl)-3-(6-isopropyl-2-methyl-7,8-dioxo-7,8-dihydronaphthalen-1-yl)propanamide]
- IC50 [2]: 13.1 µM
- inhibition at 10 µM [1, 5]: 80%
- IC50 [1]: 1.33 ± 0.01 µM

Compound: CC(C)C1=Cc2ccc3c(c2C(=O)C1=O)CCCC3(C)C [Compound 5]
- inhibition at 10 µM ([1]; read-out: IDO1 Inhibition @ 10 μM (%)): 81%

Compound: Cc1ccc2c(c1CCCC(C)(C)O)C(=O)C(O)=C(C(C)C)C2=O [Compound 11]
- IDO1 Inhibition @ 10 μM (%) [1, 6]: almost lost their activity
- inhibition at 10 µM [1, 4]: 2%

Compound: CC(C)=CCCc1c(C)ccc2c1C(=O)C(O)=C(C(C)C)C2=O [Compound 14]
- inhibition at 10 µM [1, 4]: 30%

Compound: Cc1ccc2c(c1CCC(=O)NCc1c[nH]c3ccccc13)C(=O)C(=O)C(C(C)C)=C2 [Compound 21f, N-((1H-indol-3-yl)methyl)-3-(6-isopropyl-2-methyl-7,8-dioxo-7,8-dihydronaphthalen-1-yl)propanamide]
- IC50 [2]: > 20 µM
- inhibition at 10 µM [1, 5]: 79%

Compound: CC(C)C1=C(O)C(=O)C2=C(CC[C@H]3C(C)(C)CCC[C@]23C)C1=O [Compound 10]
- IDO1 Inhibition @ 10 μM (%) [1, 6]: almost lost their activity
- inhibition at 10 µM [1, 4]: 2%

Compound: CCS(=O)(=O)OCCCc1c(C)ccc2c1C(=O)C(=O)C(C(C)C)=C2 [Compound 24b, 3-(6-Isopropyl-2-methyl-7,8-dioxo-7,8-dihydronaphthalen-1-yl)propyl ethanesulfonate]
- IC50 [2]: 15.5 µM
- inhibition at 10 µM [1, 5]: 87%

Compound: Cc1ccc2c(c1CCC(=O)C(C)C)C(=O)C(=O)C(C(C)C)=C2 [Compound 7]
- inhibition at 10 µM [1, 4]: 86%

Compound: Cc1ccc2c(c1CCC(=O)Nc1ccc(F)c(Br)c1)C(=O)C(=O)C(C(C)C)=C2 [Compound 21d, N-(3-Bromo-4-fluorophenyl)-3-(6-isopropyl-2-methyl-7,8-dioxo-7,8-dihydronaphthalen-1-yl)propanamide]
- IC50 [2]: 9.31 µM
- inhibition at 10 µM [1, 5]: 65%

Compound: Cc1ccc2c(c1CCCOS(C)(=O)=O)C(=O)C(=O)C(C(C)C)=C2 [Compound 24a, 3-(6-Isopropyl-2-methyl-7,8-dioxo-7,8-dihydronaphthalen-1-yl)propyl methanesulfonate]
- IC50 [2]: 11.8 µM
- inhibition at 10 µM [1, 5]: 91%
- IC50 [1]: 0.72 ± 0.13 µM

Compound: Cc1ccc2c(c1CCC(=O)NCc1cn(C)c3ccccc13)C(=O)C(=O)C(C(C)C)=C2 [Compound 21g, 3-(6-Isopropyl-2-methyl-7,8-dioxo-7,8-dihydronaphthalen-1-yl)-N-((1-methyl-1H-indol-3-yl)methyl)-propanamide]
- IC50 [2]: 12.2 µM
- inhibition at 10 µM [1, 5]: 74%

Compound: Cc1ccc2c(c1CCC(=O)Nc1ccc(F)cc1)C(=O)C(=O)C(C(C)C)=C2 [Compound 21b, N-(4-Fluorophenyl)-3-(6-isopropyl-2-methyl-7,8-dioxo-7,8-dihydronaphthalen-1-yl)propanamide]
- IC50 [2]: 14.8 µM
- inhibition at 10 µM [1, 5]: 64%
